Measurements published in PMC8957877, “The Resistance of Cancer Cells to Palbociclib, a Cyclin-Dependent Kinase 4/6 Inhibitor, is Mediated by the ABCB1 Transporter” (Frontiers in Pharmacology, 2022).

Columns and labels:
ABCB1 transporter [1] = biological target: T1, ABCB1 transporter (Homo sapiens, UniProt P08183)
ABCB1 transporter [2] = biological target: T1, ABCB1 transporter; assay: biochemical

T1 sequence (P08183 whole entry): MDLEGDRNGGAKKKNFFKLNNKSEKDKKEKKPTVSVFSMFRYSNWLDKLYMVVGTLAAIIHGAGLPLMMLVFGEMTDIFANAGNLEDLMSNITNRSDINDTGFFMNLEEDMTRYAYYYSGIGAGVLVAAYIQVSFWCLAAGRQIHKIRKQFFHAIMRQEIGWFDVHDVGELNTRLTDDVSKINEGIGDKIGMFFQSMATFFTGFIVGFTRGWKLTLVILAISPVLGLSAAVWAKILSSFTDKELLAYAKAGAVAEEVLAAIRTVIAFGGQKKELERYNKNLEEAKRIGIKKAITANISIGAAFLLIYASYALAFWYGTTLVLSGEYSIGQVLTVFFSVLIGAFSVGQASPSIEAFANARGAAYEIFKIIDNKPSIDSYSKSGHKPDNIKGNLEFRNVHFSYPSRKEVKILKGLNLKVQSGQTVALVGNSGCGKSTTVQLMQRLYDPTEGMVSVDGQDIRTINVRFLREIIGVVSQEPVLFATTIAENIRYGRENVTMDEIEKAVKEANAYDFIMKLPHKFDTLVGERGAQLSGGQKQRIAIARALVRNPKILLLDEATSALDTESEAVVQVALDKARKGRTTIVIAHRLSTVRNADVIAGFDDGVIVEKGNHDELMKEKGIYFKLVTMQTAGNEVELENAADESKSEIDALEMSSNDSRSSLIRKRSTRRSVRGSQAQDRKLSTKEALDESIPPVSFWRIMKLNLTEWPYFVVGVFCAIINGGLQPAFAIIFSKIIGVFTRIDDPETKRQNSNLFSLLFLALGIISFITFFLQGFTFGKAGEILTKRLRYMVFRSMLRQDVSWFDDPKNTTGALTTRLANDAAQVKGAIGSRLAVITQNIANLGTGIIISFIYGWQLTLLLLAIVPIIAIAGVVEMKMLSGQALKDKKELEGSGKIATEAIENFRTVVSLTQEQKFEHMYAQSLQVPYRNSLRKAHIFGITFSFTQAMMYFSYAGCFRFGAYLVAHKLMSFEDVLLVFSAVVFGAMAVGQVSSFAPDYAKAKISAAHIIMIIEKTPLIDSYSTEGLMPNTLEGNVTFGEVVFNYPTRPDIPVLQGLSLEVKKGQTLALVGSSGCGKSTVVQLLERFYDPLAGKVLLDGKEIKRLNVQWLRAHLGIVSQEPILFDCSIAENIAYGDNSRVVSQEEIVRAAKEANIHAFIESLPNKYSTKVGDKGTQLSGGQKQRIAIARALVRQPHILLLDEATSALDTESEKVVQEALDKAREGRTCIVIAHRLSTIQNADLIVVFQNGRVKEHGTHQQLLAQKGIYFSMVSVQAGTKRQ

Row | EC50 (ABCB1 transporter [2]) | Structure (SMILES) | radiolabelled substrate accumulation/efflux in ABCB1-overexpressing KB-C2 vs par (ABCB1 transporter [1])
1 | – | CC(=O)O[C@H]1C(=O)[C@@]2(C)[C@H]([C@H](OC(=O)c3ccccc3)[C@]3(O)C[C@H](OC(=O)[C@H](O)[C@@H](NC(=O)c4ccccc4)c4ccccc4)C(C)=C1C3(C)C)[C@]1(OC(C)=O)CO[C@@H]1C[C@@H]2O [[^3H]-paclitaxel] | significantly greater than that of KB-C2 drug-resistant cancer cell line, due to an increase in the extrusion of [^3H]-paclitaxel
2 | 4.73 µM | CC(=O)c1c(C)c2cnc(Nc3ccc(N4CCNCC4)cn3)nc2n(C2CCCC2)c1=O [palbociclib] | –
